What was measured:
J774.G8 macrophages = assay: Macrophage toxicity assay (sulforhodamine B); format: cell-based, mouse; conditions: for IC50 (macrophage toxicity): 72 hours, 37° C., macrophage growth inhibited by 50%; for toxicity to the macrophage (in words): in vitro
Method: The toxicity of the candidate compounds on J774.G8 macrophages was measured using a sulforhodamine B (Molecular Probes, Eugene, Oreg.) based dye assay.
Specifically, a confluent culture of macrophages in a T75 culture flask was harvested by replacing the growth medium (DMEM supplemented with 10% heat inactivated fetal calf serum, 50 units/ml penicillin, and 50 μg/ml streptomycin) with 25 ml of fresh medium and scraping the cells from the bottom of the culture flask. Cell clumps were broken up by gentle pipetting and the cell suspension was transferred to a 50 ml conical centrifuge tube. The cells were then pelleted by centrifugation at 1,000 rpm at 4° C. for 5 minutes. The supernatant was then removed and the cells were resuspended in 15 ml DMEM.
After counting an aliquot of the cell suspension, the macrophages were then diluted to about 1×10^5 cells/ml in DMEM and 180 μl was added to each well of a 96 well tissue culture plate Then 20 μl serial dilutions of a given candidate compound was added. The plate was then placed in a 37° C. humidified 5% CO2 incubator and incubated for 72 hours. Then 50 μl of 50% TCA was added to each well to fix the proteins. The plate was then incubated for at least 1 hour at 4° C.
The liquid contents of the wells were discarded and the wells were washed five times with 200 μl of distilled water. After the final wash the plate was allowed to air dry for 20 minutes. 100 μl of the sulforhodamine B dye (0.4% dye in 1% acetic acid) was added. The plate was then incubated at room temperature for 20 minutes. After discarding the dye solution, the wells were washed five times with 200 μl of 1% acetic acid and then allowed to air dry for 20 minutes. At this time, 50 μl of 10 mM TRIS base was added. After a few minutes of incubation, the absorbance of each well at 490 nm was measured in a SpectraMax Pro microplate reader (Molecular Devices, Sunnyvale, Calif.).
The IC50 values for each candidate compound (the concentration of the agent that inhibited macrophage growth by 50%) were determined for the macrophages with the aid of the program SoftMax Pro (Molecular Devices, Sunnyvale, Calif.) using the following dose response equation: y=((a−d)/1+(x/c)^b)+d, where x=drug concentration; y=absorbance at 490 nm; a=upper asymptote; b=slope; c=IC50; and d=lower asymptote. FIG. 5 provides the graphical data for compound 1DWB667 as an example.

L. donovani L82 = assay: In vivo assay, murine visceral model of leishmaniasis; parameters: species or system Leishmania donovani; conditions: Table 4; BALB/c mice; 15 μmol/kg i.v. × 5

Substance | IC50 (macrophage toxicity) (J774.G8 macrophages) [µg/mL] | toxicity to the macrophage (in words) (J774.G8 macrophages) | % inhibition ± S.E.M. (L. donovani L82) [%]
2,5-Bis[2-methyl-4-(2-pyridylimino)aminophenyl]furan [DB 702] | 2.23 |  | 
2,5-Bis[2-methoxy-4-(2-pyridylimino)aminophenyl]furan [DB 709] | 0.199 | toxic to the macrophage in vitro within the same range of toxicity to the amastigote within the macrophage | 
2,5-Bis[4-(2-pyridylimino)aminophenyl]furan [1DWB 667] | 4.28 |  | 
2,5-Bis[2-chloro-4-(2-pyridylimino)aminophenyl]furan [DB 712] | 3.39 | about less than or equal to DB 702 and 1DWB667 | 15.33 ± 2.7
2,5-Bis[2-methyl-4-(5-methyl-2-pyridylimino)aminophenyl]furan [DB 710] | 3.64 | about less than or equal to DB 702 and 1DWB667 | 
